Values quoted from earlier work, collected in patent US8222237B2, “Progestational 3-(6,6-ethylene-17B-hydroxy-3-oxo-17A-pregna-4-ene-17A-yl)propionic acid G-lactones” (Evestra, Inc., priority 2008, dated 2012).

How the values were obtained:
[1] = from a single entity tablet
[2] = at various pH values
[3] = acidic conditions such as encountered in the gastric environment

C[C@]12CCC(=O)C=C1[C@@H]1C[C@@H]1[C@H]1[C@@H]3[C@@H]4C[C@@H]4[C@@]4(CCC(=O)O4)[C@@]3(C)CC[C@@H]12 [drospirenone, 6β,7β,15β,16β-dimethylene-3-oxo-17α-pregn-4-ene-21,17-carbolactone]
absolute bioavailability [1]: about 76%
solubility in water [2]: only sparingly soluble
isomerization under acidic conditions [3]: undergo isomerization to a form that is inactive
